From US20070231406A1, “Use of gallium to treat biofilm-associated infections” (priority 2006, published 2007)
Like-named read-outs stand apart in the source and are kept apart here.

Columns and labels:
[1] = tested on: P. aeruginosa Xen 5; format: in vivo, Pseudomonas aeruginosa
Protocol: (§1) Catheter-associated UTI with Pseudomonas aeruginosa Xen5 (10^6 CFU/catheter) in CF-1 female mice was established as described by Kadurugamuwa et al. (2005) Infection and Immunity 73(7):3878-87). Gallium maltolate (GaM) was assessed for efficacy against urinary tract infection (UTI) by P. aeruginosa, alone or in combination with ciprofloxacin (cipro) using bioluminescent engineered P. aeruginosa Xen5 in a CF-1 female mice UTI model that allows real time monitoring of infection with the Xenogen IVIS® Imaging System.
(§2) Catheter-associated UTI with P. aeruginosa (10^6 colony forming units (CFU)/catheter) were established in mice and treated 2 days after infection for 4 consecutive days with GaM alone; or cipro alone; or the combination of GaM and cipro. A second cycle of treatment was started on days 9-11 and the study terminated on day 21. Controls included saline-treated uninfected and infected animals.

[2] = tested on: P. aeruginosa Xen5; format: in vivo, Pseudomonas aeruginosa
Protocol: as §1, §2

[3] = tested on: Pseudomonas aeruginosa Xen5; experiment: Biophotonic monitoring of catheter-associated UTI with bioluminescent P. aeruginosa Xen5 in CF-1 female mice; format: in vivo
Protocol: as §1, §2
Ciprofloxacin US Pharmacopeia, Rockville, Md.) and gallium maltolate were administered by oral gavage. Ciprofloxacin was given in 0.2 mL of water and gallium maltolate in 0.2 mL water containing 1% carboxylmethyl cellulose. A second group of animals served as an untreated infection control group by being implanted with infected catheters and treated with saline. In another control group, animals were implanted with sterile catheters and served as a negative control.
Therapeutic agents were readministered for 3 consecutive days, after 4 days of cessation of the initial 4-day therapy.

[4] = Pharmacokinetics of serum gallium (ICP-MS) after oral gallium maltolate in female CF-1 mice; format: in vivo; conditions: 30 and 300 mg/kg oral gavage q.d. for 4 days
Protocol: Adult, female CF-1 mice (initial weight range 32-39 gram) were treated with 30 and 300 mg/kg gallium maltolate by oral gavage q.d. for 4 consecutive days. Both doses were administered in the same volume of drug solution, i.e., 480 μL of 2.5 and 25 mg/mL gallium maltolate in 1% carboxyl methylcellulose. Blood was drawn at the following time points after the final dose administration: 0, 0.5, 1 3, 6, 9, 12, 24, 33 and 48 hours. Blood drawn at time point ‘0’ was taken immediately after dosing. Blood samples were collected within ±5% of the scheduled time point. Whole blood (500 to 1000 μL) was drawn from a single mouse by cardiac puncture, and four mice were sacrificed per time point for each dosing group. After blood collection, the specimens were held at room temperature to allow for clot formation followed by centrifugation to obtain serum. The concentration of gallium in 100 μL serum was determined by Inductively Coupled Plasma—Mass Spectrometry (ICP-MS).
After a weighted linear regression analysis calibration curve had been established and validated by quality control analysis, serum gallium concentrations in the samples were measured and the results plotted.

[5] = 7 days after infection, ciprofloxacin 30 mg/kg b.i.d. oral
[6] = 11 days after infection, ciprofloxacin 30 mg/kg b.i.d. oral
[7] = 14 days after infection, ciprofloxacin 30 mg/kg b.i.d. oral
[8] = 16 days after infection, ciprofloxacin 30 mg/kg b.i.d. oral
[9] = 17 days after infection, ciprofloxacin 30 mg/kg b.i.d. oral
[10] = 21 days after infection, ciprofloxacin 30 mg/kg b.i.d. oral
[11] = ciprofloxacin 30 mg/kg b.i.d. oral
[12] = 7 days after infection, gallium maltolate 300 mg/kg q.d. oral
[13] = 11 days after infection, gallium maltolate 30 mg/kg q.d. oral
[14] = 11 days after infection, gallium maltolate 100 mg/kg q.d. oral
[15] = 11 days after infection, gallium maltolate 300 mg/kg q.d. oral
[16] = 14 days after infection, gallium maltolate 300 mg/kg q.d. oral
[17] = 16 days after infection, gallium maltolate 30 mg/kg q.d. oral
[18] = 16 days after infection, gallium maltolate 100 mg/kg q.d. oral
[19] = 16 days after infection, gallium maltolate 300 mg/kg q.d. oral
[20] = 17 days after infection, gallium maltolate 30 mg/kg q.d. oral
[21] = 17 days after infection, gallium maltolate 100 mg/kg q.d. oral
[22] = 17 days after infection, gallium maltolate 300 mg/kg q.d. oral
[23] = 21 days after infection, gallium maltolate 30 mg/kg q.d. oral
[24] = 21 days after infection, gallium maltolate 100 mg/kg q.d. oral
[25] = 21 days after infection, gallium maltolate 300 mg/kg q.d. oral
[26] = gallium maltolate 30 mg/kg q.d. oral
[27] = gallium maltolate 100 mg/kg q.d. oral
[28] = gallium maltolate 300 mg/kg q.d. oral

O=C(O)c1cn(C2CC2)c2cc(N3CCNCC3)c(F)cc2c1=O [Ciprofloxacin, reference compound]
Bacterial counts in urine, Geometric Mean [1, 5]: 3.3 × 10^3 CFU/ml | Range of bacterial counts in urine [1, 5]: 2.0 × 10^2-7.0 × 10^5 CFU/ml | Bacterial counts in urine, Geometric Mean [1, 6]: 2.0 × 10^2 CFU/ml | Range of bacterial counts in urine [1, 6]: 2.0 × 10^2 CFU/ml | Bacterial counts in urine, Geometric Mean [1, 7]: 1.1 × 10^5 CFU/ml | Range of bacterial counts in urine [1, 7]: 2.0 × 10^2-1.2 × 10^7 CFU/ml | Bacterial counts in urine, Geometric Mean [1, 8]: 3.2 × 10^4 CFU/ml | Range of bacterial counts in urine [1, 8]: 2.0 × 10^2-6.0 × 10^5 CFU/ml | Bacterial counts in urine, Geometric Mean [1, 9]: 1.2 × 10^5 CFU/ml | Range of bacterial counts in urine [1, 9]: 2.0 × 10^2-8.0 × 10^6 CFU/ml | Bacterial counts in urine, Geometric Mean [1, 10]: 2.2 × 10^5 CFU/ml | Range of bacterial counts in urine [1, 10]: 2.0 × 10^2-3.6 × 10^7 CFU/ml | % Mortality [2, 11]: 12.5% | No. of animals with a kidney signal at day 21/Total no. of animals [2, 11]: 1/7 | Percent bacterial growth in animals compared to untreated control ([3]; Day 2, ciprofloxacin 30 mg/kg b.i.d. oral): 100% | Percent bacterial growth in animals compared to untreated control ([3]; Day 5, ciprofloxacin 30 mg/kg b.i.d. oral): 3% | Percent bacterial growth in animals compared to untreated control ([3]; Day 8, ciprofloxacin 30 mg/kg b.i.d. oral): 9% | Percent bacterial growth in animals compared to untreated control ([3]; Day 10, ciprofloxacin 30 mg/kg b.i.d. oral): 2% | Percent bacterial growth in animals compared to untreated control ([3]; Day 15, ciprofloxacin 30 mg/kg b.i.d. oral): 138% | Percent bacterial growth in animals compared to untreated control ([3]; Day 21, ciprofloxacin 30 mg/kg b.i.d. oral): 272% | Bioluminescent signal after discontinuing first ciprofloxacin treatment ([3]; approximately two days after discontinuing the initial 4-day therapy): reestablishment of the infection upon cessation of antibiotic therapy | Bioluminescent signal in the bladder compared to untreated control ([3]; ciprofloxacin 30 mg/kg b.i.d., after four days of treatments): rapid decline in bioluminescent signal to almost nearly to undetectable levels | Bioluminescence signal on re-administration of antibiotic ([3]; re-administration for three consecutive days): repeat decline in the bioluminescence signal | Infection after discontinuation of second bout of ciprofloxacin treatment ([3]; soon after discontinuation of second treatment cycle): infection re-established once again and approximately reached untreated levels

Cc1occc(=O)c1[O-].Cc1occc(=O)c1[O-].Cc1occc(=O)c1[O-].[Ga+3] [Gallium maltolate, gallium maltolate]
Bacterial counts in urine, Geometric Mean [1, 12]: 3.0 × 10^5 CFU/ml | Range of bacterial counts in urine [1, 12]: 1.3 × 10^5-1.5 × 10^6 CFU/ml | Bacterial counts in urine, Geometric Mean [1, 13]: 1.5 × 10^5 CFU/ml | Range of bacterial counts in urine [1, 13]: 1.2 × 10^5-1.8 × 10^5 CFU/ml | Bacterial counts in urine, Geometric Mean [1, 14]: 4.6 × 10^4 CFU/ml | Range of bacterial counts in urine [1, 14]: 2.0 × 10^2-6.0 × 10^6 CFU/ml | Bacterial counts in urine, Geometric Mean [1, 15]: 1.1 × 10^5 CFU/ml | Range of bacterial counts in urine [1, 15]: 2.2 × 10^4-6.2 × 10^5 CFU/ml | Bacterial counts in urine, Geometric Mean [1, 16]: 2.3 × 10^5 CFU/ml | Range of bacterial counts in urine [1, 16]: 1.2 × 10^5-6.0 × 10^5 CFU/ml | Bacterial counts in urine, Geometric Mean [1, 17]: 2.4 × 10^5 CFU/ml | Range of bacterial counts in urine [1, 17]: 1.2 × 10^5-6.0 × 10^5 CFU/ml | Bacterial counts in urine, Geometric Mean [1, 18]: 1.1 × 10^4 CFU/ml | Range of bacterial counts in urine [1, 18]: 2.0 × 10^2-3.0 × 10^6 CFU/ml | Bacterial counts in urine, Geometric Mean [1, 19]: 5.8 × 10^5 CFU/ml | Range of bacterial counts in urine [1, 19]: 3.2 × 10^5-8 × 10^5 CFU/ml | Bacterial counts in urine, Geometric Mean [1, 20]: 1.6 × 10^5 CFU/ml | Range of bacterial counts in urine [1, 20]: 4.0 × 10^4-6.0 × 10^5 CFU/ml | Bacterial counts in urine, Geometric Mean [1, 21]: 2.9 × 10^4 CFU/ml | Range of bacterial counts in urine [1, 21]: 2.0 × 10^2-2.0 × 10^6 CFU/ml | Bacterial counts in urine, Geometric Mean [1, 22]: 3.2 × 10^5 CFU/ml | Range of bacterial counts in urine [1, 22]: 4.0 × 10^4-1.6 × 10^6 CFU/ml | Bacterial counts in urine, Geometric Mean [1, 23]: 1.6 × 10^5 CFU/ml | Range of bacterial counts in urine [1, 23]: 1.2 × 10^4-2.0 × 10^6 CFU/ml | Bacterial counts in urine, Geometric Mean [1, 24]: 8.2 × 10^3 CFU/ml | Range of bacterial counts in urine [1, 24]: 2.0 × 10^2-1.4 × 10^6 CFU/ml | Bacterial counts in urine, Geometric Mean [1, 25]: 3.1 × 10^5 CFU/ml | Range of bacterial counts in urine [1, 25]: 1.6 × 10^5-5.6 × 10^6 CFU/ml | Kidney infections at the termination of the study ([2]; at all doses tested, day 21): free of kidney infections | % Mortality [2, 26]: 25.0% | No. of animals with a kidney signal at day 21/Total no. of animals [2, 26]: 0/3 | % Mortality [2, 27]: 25.0% | No. of animals with a kidney signal at day 21/Total no. of animals [2, 27]: 0/3 | % Mortality [2, 28]: 0.0% | No. of animals with a kidney signal at day 21/Total no. of animals [2, 28]: 0/4 | Initial half-life of elimination of serum gallium [4]: 8 to 12 h | Time of peak serum gallium concentration ([4]; after final dose): within half hour | Percent bacterial growth in animals compared to untreated control ([3]; Day 2, gallium maltolate 30 mg/kg q.d. oral): 100% | Percent bacterial growth in animals compared to untreated control ([3]; Day 2, gallium maltolate 100 mg/kg q.d. oral): 100% | Percent bacterial growth in animals compared to untreated control ([3]; Day 2, gallium maltolate 300 mg/kg q.d. oral): 100% | Percent bacterial growth in animals compared to untreated control ([3]; Day 5, gallium maltolate 30 mg/kg q.d. oral): 60% | Percent bacterial growth in animals compared to untreated control ([3]; Day 5, gallium maltolate 100 mg/kg q.d. oral): 33% | Percent bacterial growth in animals compared to untreated control ([3]; Day 5, gallium maltolate 300 mg/kg q.d. oral): 19% | Percent bacterial growth in animals compared to untreated control ([3]; Day 8, gallium maltolate 30 mg/kg q.d. oral): 10% | Percent bacterial growth in animals compared to untreated control ([3]; Day 8, gallium maltolate 100 mg/kg q.d. oral): 12% | Percent bacterial growth in animals compared to untreated control ([3]; Day 8, gallium maltolate 300 mg/kg q.d. oral): 7% | Percent bacterial growth in animals compared to untreated control ([3]; Day 10, gallium maltolate 30 mg/kg q.d. oral): 13% | Percent bacterial growth in animals compared to untreated control ([3]; Day 10, gallium maltolate 100 mg/kg q.d. oral): 2% | Percent bacterial growth in animals compared to untreated control ([3]; Day 10, gallium maltolate 300 mg/kg q.d. oral): 4% | Percent bacterial growth in animals compared to untreated control ([3]; Day 15, gallium maltolate 30 mg/kg q.d. oral): 54% | Percent bacterial growth in animals compared to untreated control ([3]; Day 15, gallium maltolate 100 mg/kg q.d. oral): 11% | Percent bacterial growth in animals compared to untreated control ([3]; Day 15, gallium maltolate 300 mg/kg q.d. oral): 20% | Percent bacterial growth in animals compared to untreated control ([3]; Day 21, gallium maltolate 30 mg/kg q.d. oral): 22% | Percent bacterial growth in animals compared to untreated control ([3]; Day 21, gallium maltolate 100 mg/kg q.d. oral): 1% | Percent bacterial growth in animals compared to untreated control ([3]; Day 21, gallium maltolate 300 mg/kg q.d. oral): 8% | Recurrence of infection after termination of administration ([3]; gallium maltolate 300 mg/kg): recurrence of high levels of infection did not occur | Bioluminescence signal level ([3]; gallium maltolate 300 mg/kg, remained until termination on day 21): approximately 10^5 photons/catheter | Antibacterial growth activity compared to untreated control ([3]; gallium maltolate 30 and 100 mg/kg): showed antibacterial growth activity
